Measurements taken from US9096544B2, “Therapeutic compounds” (Wayne State University, priority 2009, dated 2015).

How the values were obtained:
AsPc-1 cells [1] = assay: Test I: apoptosis of AsPc-1 pancreatic cancer cells (Annexin V-FITC/PI); format: cell-based; conditions: 1 μM, 72 h
Protocol: (§1) Pancreatic cancer cell lines (COLO357, PANC-1, Capan-2, AsPc-1 cells and MiaPaCa-2 cells obtained from American Type Culture Collection; ATCC, Rockville, Md.) were treated with 1 μM 3-Cl-AHPC and compound 16 for various times. Apoptosis in cells were analyzed by flow cytometry using Annexin V-FITC binding together with propidium iodide (PI) staining (Annexin V-FITC apoptosis Detection Kit 1, BD Biosciences, San Diego, Calif.). Data acquisition was done on a FACS Calibur flow cytometer (BD) and analyzed with CellQuest software (BD Biosciences). 3-Cl-AHPC and compound 16 mediated inhibition of cell growth were determined by 3-(4,5-dimethylthiazol-2-yl)-2,5-diphenyltetrazolium bromide (MTT) assay. The cells were seeded on 96-well plates at a density of 4×10^4 cells/well in a volume of 200 μl culture medium. 1 μM AHP3 and 3-Cl-AHPC in DMSO (final concentration 0.1%) were added to the cells for various times. […] After discarding the medium, MTT precipitates were solubilized with 200 μl DMSO and the plates read on a BioTeK Synergy HT (BioTeK Instrument Inc., Vermont) at an absorbance 570 nm. […] The spheroids were stained with acridine orange/ethidium bromide staining and immediately visualized and photographed with fluorescence microscope (OLYMPUS CKX41). […] Then spheroids were visualized and photographed with a fluorescence microscope.

AsPc-1 cells [2] = assay: Test I: growth inhibition of AsPc-1 cells (MTT); format: cell-based; conditions: 1 μM
Protocol: as §1

MiaPaCa-2 cells = assay: Test I: apoptosis of MiaPaCa-2 pancreatic cancer cells (Annexin V-FITC/PI); format: cell-based; conditions: 1 μM, 72 h
Protocol: as §1

FFMA-AML cells = assay: Test D: inhibition of FFMA-AML growth in NOD-SCID mice (survival); format: in vivo
Protocol: FIG. 6 illustrates 3-Cl-AHPC and compound 16 inhibition of FFMA-AML cell proliferation in NOD-SCID mice and prolongation of their survival. A) Sixteen NOD-SCID mice, which had been randomized into two groups of eight each, were injected through the tail vein with 1×10^6 FFMA-AML cells. Intravenous injection of vehicle or 3-Cl-AHPC (30 mg/kg) twice daily for 4 days was instituted 24 h later. B) An identical study was performed with the exception that 3-Cl-AHPC was administered interperitoneally. C) Twenty four NOD-SCID mice were randomized into three groups of eight. […] The mice were monitored for toxicity and survival.
Non-obese diabetic-severe combined immunodeficiency (NOD-SCID) and ICR-SCID mice were obtained from Jackson Laboratories (Bar Harbor, Me.) and Taconic Farms (Germantown, N.Y.), respectively. A) FFMA-AML and TF(v-SRC) systemic models: NOD-SCID and ICR-SCID mice (4 to 5 weeks old) were injected with either FFMA-AML or TF(v-SRC) cells intravenously. Treatment with either vehicle, 3-Cl-AHPC or compound 16 (the compound of Example 1) was instituted the following day. Once symptoms such as diarrhea, dehydration, weight loss, ascites, paralysis or general weakness became evident, mice were euthanized. B) TF(v-SRC) subcutaneous mouse model. ICR-SCID mice were trocared subcutaneously bilaterally with TF(v-SRC) tumor fragments. Animals with equal tumor weights determined as described previously (Zhang Y. et al., Blood. 2002; 100:2917-2925) were assigned to three experimental arms: 1) control (vehicle treated), 2) subcutaneously treated with compound 16, and 3) intravenously treated with compound 16. The percent increase in the host life-span (% ILS) of the FFMA-AML and TF(v-SRC) bearing mice was calculated by subtracting the […] divided by the median day of death of the AML-bearing vehicle treated mice. In order to determine the efficacy of the 3-Cl-AHPC and compound 16, survival distribution of the 3-Cl-AHPC or compound 16-treated (T) or vehicle (C) groups were compared using the log-rank test. Survival was characterized as the duration of the animal's life span 24 h after the initiation of the xenograft until an observed event (euthanasia or death). A p-value of less than 5% (p<0.05) was considered statistically significant.
The ability of 3-Cl-AHPC and compound 16 to inhibit the growth of FFMA-AML cells in NOD-SCID mice was determined. NOD-SCID mice randomly assigned to two groups of eight mice each were injected with 1 million cells through the tail vein. The mice then received either vehicle or 3-Cl-AHPC (30 mg/kg) given intravenously twice daily for 4 days. […]

## O=C(O)C=Cc1ccc(-c2ccc(O)c(C34CC5CC(CC(C5)C3)C4)c2)c(Cl)c1 [Compound 3-Cl-AHPC, 4-[3-(1-adamantyl)-4-hydroxyphenyl]-3-chlorocinnamic acid, reference compound]
AsPc-1 cells [1]
  induction of apoptosis: Apoptosis was also noted
AsPc-1 cells [2]
  inhibition of growth: significant inhibition of growth
MiaPaCa-2 cells
  induction of apoptosis: Apoptosis was also noted
FFMA-AML cells; 30 mg/kg intravenously twice daily for 4 days, p value 0.0001
  increase in the length of survival over vehicle: 25%
FFMA-AML cells; 3-Cl-AHPC 30 mg/kg twice daily for 4 days
  toxicity in treated mice: toxicity including weight loss and decreased physical activity

## O=C(O)/C=C/c1cnc(-c2ccc(O)c(C34CC5CC(CC(C5)C3)C4)c2)nc1 [Compound 16, (E)-3-[2-(3-(1-Adamantyl)-4-hydroxyphenyl)-5-pyrimidinyl]-2-propenoic acid]
AsPc-1 cells [1]
  induction of apoptosis: Apoptosis was also noted
AsPc-1 cells [2]
  inhibition of growth: significant inhibition of growth
MiaPaCa-2 cells
  induction of apoptosis: Apoptosis was also noted
FFMA-AML cells; 5.0 mg/kg or 7.5 mg/kg twice a day for 4 days, tail vein, p=0.0002
  increase in survival (ILS): 26%
FFMA-AML cells; compound 16 5.0 or 7.5 mg/kg twice a day
  toxicity in treated mice: extremely well tolerated and no toxicity was noted
